{"source": "ChEMBL document CHEMBL5725474", "about": "“Carbazole compounds useful as bromodomain inhibitors” (2018)", "data": [{"target": "Bromodomain-containing protein 4 (Homo sapiens, UniProt O60885)", "assay": "Time Resolved Fluorescence Resonance Energy Transfer (TR-FRET) Assay: The binding of compounds to bromodomain BRD4 (44-168), BRD4 (333-460), and BRD4 (1-477 or 44-460) was assessed using a time resolved fluorescent resonance energy transfer binding assay (1), that measures the binding of a fluorescently labeled probe molecule to the bromodomain protein. The bromodomain protein, fluorescent probe molecule (either a biotinylated histone peptide or a fluorescently labeled small molecule), and dose-responsed test compound are incubated together to reach thermodynamic equilibrium. In the absence of a test compound, the bromodomain and small molecule are bound, resulting in a high fluorescent signal. In the presence of a sufficient concentration of inhibitor, this intercation is disrupted resulting in a loss of fluorescent resonance energy transfer.", "units": {"IC50": "µM"}, "values": [{"molecule": "Cc1noc(C)c1-c1cc(C(N)=O)c2c(c1)c1ccc(N3CCOCC3)cc1n2CC1CC1", "IC50": "< 5"}, {"molecule": "Cc1noc(C)c1-c1cc(C(N)=O)c2c(c1)c1ccc(C(C)(C)O)cc1n2S(C)(=O)=O", "IC50": "< 0.05"}, {"molecule": "COC1CN(C(=O)c2ccc3c4cc(-c5c(C)noc5C)cc(C(N)=O)c4n(S(=O)(=O)C4CC4)c3c2)C1", "IC50": "< 0.05"}, {"molecule": "Cc1noc(C)c1-c1cc(C(N)=O)c2c(c1)c1ccc(N3CCCC3=O)cc1n2CC1CC1", "IC50": "< 0.05"}, {"molecule": "Cc1noc(C)c1-c1cc(C(=O)NCC2CC2)c2c(c1)c1c(S(C)(=O)=O)cccc1n2CC1CC1", "IC50": "< 0.5"}, {"molecule": "COC(=O)Nc1ccc2c3cc(-c4c(C)noc4C)cc(C(N)=O)c3n(CC3CC3)c2c1", "IC50": "< 0.5"}, {"molecule": "Cc1noc(C)c1-c1cc(C(N)=O)c2c(c1)c1ccc(S(C)(=O)=O)cc1n2S(=O)(=O)C1CC1", "IC50": "< 0.5"}, {"molecule": "Cc1noc(C)c1-c1cc(C(N)=O)c2c(c1F)c1ccc(C(=O)N3C[C@@H](C)O[C@@H](C)C3)cc1n2CC1CC1", "IC50": "< 0.05"}]}]}
